Source: ChEMBL document CHEMBL3217505, “Synthesis and biological evaluation of a new class of anti-brucella compounds targeting histidinol dehydrogenase: -O-arylketones and -S-arylketones derived from histidine” (Medchemcomm, 2011)

molecular target: T1, Histidinol dehydrogenase (Brucella suis biovar 1 (strain 1330), UniProt Q8G2R2); experiment: Inhibition of Brucella suis 1330 His6-tagged HDH expressed in Escherichia coli BL21 (DE3) using L-histidinol as substrate assessed as NADH formation preincubated for 5 mins followed by substrate addition
T1 sequence (Q8G2R2 whole entry): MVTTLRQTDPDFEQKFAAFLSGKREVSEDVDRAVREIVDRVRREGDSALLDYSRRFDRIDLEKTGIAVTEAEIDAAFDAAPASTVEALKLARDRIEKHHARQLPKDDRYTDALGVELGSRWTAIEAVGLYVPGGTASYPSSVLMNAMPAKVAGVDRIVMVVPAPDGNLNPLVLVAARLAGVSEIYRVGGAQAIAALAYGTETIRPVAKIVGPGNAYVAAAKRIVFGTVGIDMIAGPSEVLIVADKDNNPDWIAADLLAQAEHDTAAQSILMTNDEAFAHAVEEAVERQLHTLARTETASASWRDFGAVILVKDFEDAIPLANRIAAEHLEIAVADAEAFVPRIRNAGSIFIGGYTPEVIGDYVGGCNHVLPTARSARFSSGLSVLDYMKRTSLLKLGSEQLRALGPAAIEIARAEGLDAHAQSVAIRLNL

SMILES	IC50
N[C@@H](Cc1c[nH]cn1)C(=O)CS	2.1 µM
N[C@@H](Cc1c[nH]cn1)C(=O)CSc1ccccc1	7.1 µM
Cc1ccc(SCC(=O)[C@@H](N)Cc2c[nH]cn2)cc1	39.5 µM
N[C@@H](Cc1c[nH]cn1)C(=O)CSc1ccc(F)cc1	3.1 µM
N[C@@H](Cc1c[nH]cn1)C(=O)CSc1ccc2ccccc2c1	3.3 µM
N[C@@H](Cc1c[nH]cn1)C(=O)CSc1ccc(Br)cc1	2.8 µM
N[C@@H](Cc1c[nH]cn1)C(=O)CSc1c(F)c(F)c(F)c(F)c1F	19.2 µM
N[C@@H](Cc1c[nH]cn1)C(=O)CO	0.0243 µM
N[C@@H](Cc1c[nH]cn1)C(=O)COc1ccccc1	3.65 µM
Cc1ccc(OCC(=O)[C@@H](N)Cc2c[nH]cn2)cc1	0.208 µM
N[C@@H](Cc1c[nH]cn1)C(=O)COc1ccc(F)cc1	4.7 µM
N[C@@H](Cc1c[nH]cn1)C(=O)COc1ccc2ccccc2c1	0.108 µM
N[C@@H](Cc1c[nH]cn1)C(=O)COc1ccc(Br)cc1	1.6 µM
N[C@@H](Cc1c[nH]cn1)C(=O)COc1c(F)c(F)c(F)c(F)c1F	2.78 µM
